Data taken from patent US20200115698A1, “PHARMACEUTICAL COMBINATION FOR TREATMENT OF FABRY DISEASE AND USE THEREOF” (MEIJI PHARMACEUTICAL UNIVERSITY, priority 2017, published 2020).

Key:
α-NAGA mutant [1] = biological target: T1, α-NAGA mutant (Homo sapiens, UniProt P17050, A191L/S188E); experiment: Calculation of inhibition constant Ki (Lineweaver-Burk plot); type: biochemical; conditions: substrate 1-8 mM; DGJ 100-400 nM, GBS 200-800 nM; pH 4.6; FIG. 2
T1 sequence (P17050 with tags, fused parts or gaps S188E/A191L): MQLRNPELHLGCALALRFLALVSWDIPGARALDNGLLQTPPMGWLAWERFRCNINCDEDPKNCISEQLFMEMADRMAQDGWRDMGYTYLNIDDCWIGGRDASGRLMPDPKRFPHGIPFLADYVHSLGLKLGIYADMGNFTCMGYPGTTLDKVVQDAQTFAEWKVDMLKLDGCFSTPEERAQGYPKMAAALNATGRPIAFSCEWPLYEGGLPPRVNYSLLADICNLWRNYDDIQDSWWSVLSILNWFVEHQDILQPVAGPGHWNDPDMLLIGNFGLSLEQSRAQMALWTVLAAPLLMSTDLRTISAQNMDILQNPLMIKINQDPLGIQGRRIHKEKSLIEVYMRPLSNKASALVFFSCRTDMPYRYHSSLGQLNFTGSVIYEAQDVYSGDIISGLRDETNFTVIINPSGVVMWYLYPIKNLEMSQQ
Experimental: Enzymatic analysis was carried out by using, as a reaction liquid, 50 ng of an α-NAGA mutant and 0.1 M phosphate-citrate buffer (pH 4.6) in which a 4-methylumbelliferylα-D-galactopyranoside substrate was dissolved at any of concentrations (1, 2, 4, 6, and 8 mM) (the total amount was 50 μl). In measuring inhibitory activity, reaction was carried out with a reaction liquid which contained DGJ at a concentration of 100, 200, or 400 nM or GBS at a concentration of 200, 400, or 800 nM. After the reaction was carried out at 37° C. for 10 minutes, 950 μl of 0.2 M glycine buffer (pH 10.7) was added to stop the reaction. Then, released 4-methylumbelliferone was measured at an excitation wavelength of 355 nm and at a fluorescence wavelength of 460 nm with use of Wallac 1420 ARVO MX Multilabel Counter. From these values, a Lineweaver-Burk plot was prepared and an inhibition constant Ki was calculated from slopes in the plot which correspond to respective concentrations of the inhibitor.

α-NAGA mutant [2] = biological target: T1, α-NAGA mutant; experiment: Heat stability test carried out by measuring enzyme activity; type: biochemical; conditions: 1 or 10 μM DGJ, FIG. 3
Experimental: 1 μM or 10 μM of DGJ was added to 10 μg/ml of an α-NAGA mutant solution which had been prepared by dissolving an α-NAGA mutant in a 10 mM sodium phosphate buffer (pH 7.5) or a 25 mM sodium acetate buffer (pH 5.2) (the total amount was 100 μl). Then, incubation was carried out at 42° C. for the solution using the 10 mM sodium phosphate buffer (pH 7.5) and at 55° C. for the solution using the 25 mM sodium acetate buffer (pH 5.2). Then, the incubated solution was sampled by 10 μl at points in time which were respectively 0 and 60 minutes after the start of the incubation. Each of the samples thus obtained was immediately added to 40 μl of a 0.1 M phosphate-citrate buffer (pH 4.6) in which a 5 mM substrate was dissolved, and enzyme activity was measured. Remaining activity is indicated based on an assumption that an enzyme activity value after 0 minutes is 100%. FIG. 3 is a view showing a result of heat stability test for confirming inhibitory activity of DGJ with respect to an α-NAGA mutant.

[3] = tested on: cultivated fibroblast derived from a Fabry disease model mouse; experiment: Simultaneous addition of α-NAGA mutant and DGJ to cultivated fibroblast derived from Fabry disease model mouse; type: cell-based; conditions: 1 μg/mL α-NAGA mutant plus 0-500 μM DGJ, 24 hours; FIG. 5
Experimental: A cultivated fibroblast derived from a Fabry disease model mouse was cultured at 37° C. under a 5% carbon dioxide environment with use of a DMEM medium to which a 10% fetal calf serum and an antibiotic substance had been added. First, concentration dependence of DGJ with respect to uptake efficiency of an α-NAGA mutant was analyzed. The cells were seeded to a 12-well plate at 1.0×10^5 cells/well. The medium was exchanged with an F-10 medium that contained 1 μg/mL of an α-NAGA mutant, any of concentrations (0, 1, 10, 100, and 500 μM) of DGJ, a 10% fetal calf serum, and an antibiotic substance, and cultivation was carried out for 24 hours. […] The homogenate thus obtained was subjected to centrifugal separation under conditions of 4° C. and 12,000 rpm, and the obtained supernatant liquid was used as samples for enzyme activity measurement, protein quantification, and Western blotting. […] Then, released 4-methylumbelliferone was measured at an excitation wavelength of 355 nm and at a fluorescence wavelength of 460 nm with use of Wallac 1420 ARVO MX Multilabel Counter (Perkin Elmer, Waltham, Mass.). Protein quantification was carried out with Micro BCA method (Micro BCA (trademark) Protein Assay Reagent Kit: Pierce) while using a concentration of bovine serum albumin (Albumin standard: Pierce Biotechnology, Inc., Rockford, Ill.) as a standard. […]

recombinant α-GAL = biological target: T2, recombinant α-GAL (Homo sapiens, UniProt P06280); conditions: simultaneous administration to a patient of Fabry disease; cited from earlier work
T2 sequence (P06280 32-429): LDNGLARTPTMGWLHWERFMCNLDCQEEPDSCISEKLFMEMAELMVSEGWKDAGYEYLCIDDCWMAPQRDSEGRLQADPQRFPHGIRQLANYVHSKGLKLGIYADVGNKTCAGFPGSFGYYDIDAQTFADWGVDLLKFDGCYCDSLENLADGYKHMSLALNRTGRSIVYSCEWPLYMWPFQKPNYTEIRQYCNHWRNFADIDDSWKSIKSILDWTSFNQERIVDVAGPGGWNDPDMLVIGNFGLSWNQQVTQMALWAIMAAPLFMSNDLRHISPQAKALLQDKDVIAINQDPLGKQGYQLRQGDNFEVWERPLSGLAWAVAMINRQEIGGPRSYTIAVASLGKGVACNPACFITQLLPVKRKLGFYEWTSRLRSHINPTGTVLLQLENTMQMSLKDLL

In the case of `OCC1NCC(O)C(O)C1O` [DGJ, (2R,3S,4R,5S)-2-(hydroxymethyl)piperdine-3,4,5-triol], the “inhibition pattern from inhibition constant Ki” value (α-NAGA mutant [1]) is reported as “inhibitory activity by competitive inhibition”, the “heat stability of the α-NAGA mutant (remaining activity after 60 minutes)” value (α-NAGA mutant [2]; acidic condition pH 5.2, 55° C., higher improvement than at neutral pH) is reported as “heat stability of the α-NAGA mutant was improved” and the “heat stability of the α-NAGA mutant (remaining activity after 60 minutes)” value (α-NAGA mutant [2]; neutral condition pH 7.5, 42° C.) is reported as “heat stability of the α-NAGA mutant was improved”. For the same compound, the “α-NAGA mutant enzyme activity in cells” value [3] was “enzyme activity was improved” and the “stabilization of administered recombinant α-GAL in the blood” value (recombinant α-GAL) was “recombinant α-GAL was stabilized”.
